From US6821769B2, “IniB, iniA and iniC genes of mycobacteria and methods of use” (priority 1998, dated 2004)

What was measured:
[1] = system: iniB promoter; format: cell-based, BCG; settings: for Induction of the iniB promoter at 24 hours: BCG containing the iniB/lacZ construct; for Induction of the iniB promoter at 24 hours / iniA gene induction / effect on iniA transcription: FIG. 4; for iniA gene induction / effect on iniA transcription: amino acids; for iniB promoter induction: 213 base pair iniB promoter in lacz reporter construct
[2] = system: iniA; test: Northern blot of iniA induction after antibiotic treatment; format: cell-based; settings: total RNA from M. tuberculosis cultured with or without antibiotics; FIG. 1
Method: Autoradiographs of a Northern blot containing RNA from M. tuberculosis cultures treated either with no antibiotics; isoniazid 0.01 μg/ml; isoniazid 0.1 μg/ml; isoniazid 1 μg/ml; ethambutol 5 μg/ml; streptomycin 5 μg/ml; and rifampin 5 μg/ml. The blots were hybridized first with an iniA DNA probe (top) to examine iniA induction; the blot was then stripped and re-hybridized with a 16S probe (bottom) to confirm equal RNA loading.
Mycobacterial cultures were grown to mid log phase in Middlebrook 7H9 media supplemented with OADC, 0.05% Tween 80, and cyclohexamide (18) (for some experiments antibiotics were added for the last 18 hours), pelleted, resuspended in chloroform/methanol 3:1, and vortexed for 60 seconds or until the formation of an interface. RNA was extracted with five volumes of Triazole (Life Technologies, Gaithersburg, Md.), the aqueous layer precipitated in isopropanol, redissolved in 4M GTC and extracted a second time with Triazole.
Five μg of each RNA sample were analyzed by northern blot with Northern Max kits (Ambion, Austin, Tex.) in a 1% denaturing agarose gel, probed with inserts of differentially expressed plasmids labeled by random priming with [α^32P] dCTP, and visualized by autoradiography.

[3] = system: asd; format: cell-based, M. tuberculosis strain Erdman; settings: RT PCR; isoniazid added for the last 18 hours; FIG. 2A
[4] = system: iniA; format: cell-based, M. tuberculosis strain Erdman; settings: RT PCR; isoniazid added for the last 18 hours; FIG. 2A

C[C@H](O)[C@@H](N)C(=O)O [D-threonine]
Induction of the iniB promoter at 24 hours [1]: comparable to that of isoniazid and Unisyn
iniA gene induction / effect on iniA transcription [1]: induced

C[C@@H](O)[C@H](N)C(=O)O [L-threonine]
Induction of the iniB promoter at 24 hours [1]: did not cause induction
iniA gene induction / effect on iniA transcription [1]: minimal effect

N[C@@H]1CON=C1O [cycloserine]
iniB promoter induction ([1]; FIG. 3): induced

CC[C@@H](CO)NCCN[C@@H](CC)CO [ethambutol]
iniA induction (Northern blot) [2]: strongly induced
iniB promoter induction ([1]; FIG. 3): induced

NCC(=O)O [gylcine]
Induction of the iniB promoter at 24 hours [1]: Modest induction

NNC(=O)c1ccncc1 [isoniazid]
iniA induction (Northern blot) [2]: strongly induced
iniB promoter induction ([1]; FIG. 3): induced
asd repression [3]: 17 fold
iniA induction by densitometry [4]: 70 fold

CO[C@H]1/C=C/O[C@@]2(C)Oc3c(C)c(O)c4c(O)c(c(/C=N/N5CCN(C)CC5)c(O)c4c3C2=O)NC(=O)/C(C)=C\C=C\[C@H](C)[C@H](O)[C@@H](C)[C@@H](O)[C@@H](C)[C@H](OC(C)=O)[C@@H]1C [rifampin]
iniA induction (Northern blot) [2]: not
Reversal of iniB promoter induction by co-administration ([1]; co-administration with inducing antibiotic, FIG. 3): can be reversed

[H]/N=C(/N)N[C@H]1[C@H](O)[C@@H](O)[C@H](O[C@@H]2O[C@@H](C)[C@](O)(C=O)[C@H]2O[C@@H]2O[C@@H](CO)[C@H](O)[C@@H](O)[C@@H]2NC)[C@@H](N/C(N)=N\[H])[C@@H]1O [streptomycin]
iniA induction (Northern blot) [2]: not
